In US11209440B2, “T cell balance gene expression, compositions of matters and methods of use thereof” (THE BROAD INSTITUTE, INC., priority 2014, dated 2021):
Entries after “also recorded” stand apart in the source; their conditions may differ.

Assays:
Rorγt [1] = target: T1, Rorγt (Mus musculus, UniProt P51450); experiment: Rorγt ChIP-PCR in Th17 cells with added SFA or PUFA; assay type: cell-based; set-up: endogenous in cells; host or cells: wild-type mouse Th17 cells differentiated in vitro from naïve CD4+ T cells; conditions: WT Th17 cells
T1 sequence (P51450 1-495 isoform P51450-2): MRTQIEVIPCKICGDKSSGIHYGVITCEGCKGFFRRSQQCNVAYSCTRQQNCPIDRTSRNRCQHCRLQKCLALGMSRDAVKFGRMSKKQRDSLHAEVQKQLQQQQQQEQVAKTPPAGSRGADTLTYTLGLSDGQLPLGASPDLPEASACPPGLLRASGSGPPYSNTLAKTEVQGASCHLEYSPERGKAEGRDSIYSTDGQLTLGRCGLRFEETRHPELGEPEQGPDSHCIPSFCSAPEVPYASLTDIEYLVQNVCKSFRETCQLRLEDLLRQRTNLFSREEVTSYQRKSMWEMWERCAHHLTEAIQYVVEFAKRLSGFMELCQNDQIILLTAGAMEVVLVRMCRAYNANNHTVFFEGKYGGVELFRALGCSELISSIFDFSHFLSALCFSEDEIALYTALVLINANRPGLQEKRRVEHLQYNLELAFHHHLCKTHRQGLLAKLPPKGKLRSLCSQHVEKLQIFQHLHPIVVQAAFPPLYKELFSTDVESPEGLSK
Description: (§1) Lipidome analysis of Th17 cells. (A) WT and CD5L^−/− naïve T cells were differentiated as in FIG. 46B in the presence of cytokines as indicated. Cells and supernatant were harvested at 96 hours and subjected to MS/LC. Three independent mouse experiments were performed. […] (B) Expression of representative metabolites including a cholesterol ester and a PUFA-containing TAG species. FIG. 48 C, D, E, F-J show as follows: (C) Metabolomic analysis of independent mouse experiments where T cells were differentiated under various cytokine conditions as indicated and harvested at 48 h and 96 h. (D,E) Rorγt ChIP from Th17 cells differentiated as described in A. under various conditions as indicated. F-K. Dual luciferase reporter assay was performed in EL4 cells stably transfected with a control vector or Rorγt vector. (F, G) CD5L retroviral vector was cotransfected in F and G at 0, 25, 50 and 100 ng/well. […] All ChIP and luciferase assay are representative of at least 3 independent experiments.

Th17 cells [2] = experiment: qPCR and Nanostring signature analysis of Th17 cells treated with free fatty acids; assay type: cell-based, mouse
Description: (§2) (A) Naïve T cells were sorted from either WT or IL-23RGFP reporter mice, activated with plate-bound anti-CD3/anti-CD28 and differentiated with TGFβ1+IL-6 for 48 hours. […] (B) Cells from WT and Rorc^−/− mice were sorted, differentiated and treated with FFA as in A. Cells were harvested for RNA purification and qPCR. (C) Naïve WT and CD5L^−/− T cells were differentiated as in A. Cells were then lifted, washed and replated in fresh media with no addition of cytokines and in the presence of control or 5 uM of arachidonic acid (PUFA). Cytokine profile of T cells were measured after PMA/ionomycin restimulation. […] Another 48 hours later, cells were harvested for nanostring analysis (D) or qPCR (E).
Next, the contribution of lipid saturation to Th17 cell pathogenicity was studied.

Rorγt [3] = target: T1, Rorγt; experiment: Dual luciferase reporter assay in EL4 cells stably transfected with Rorγt vector; assay type: cell-based; set-up: expressed in transfected cells; host or cells: EL4 cells, stably transfected; conditions: for Rorγt driven Il17a transcription: 10 μM arachidonic acid
Description: as §1

Th17 cells [4] = experiment: FACS of IL-17 and IL-23R.GFP in Th17 cells treated with free fatty acids; assay type: cell-based, mouse
Description: as §2

Cd5l expression = Cd5l expression by qPCR in TGFβ1+IL-6 Th17 cells expanded with or without IL-23; assay type: cell-based, mouse; conditions: naïve T cells differentiated with TGFβ1+IL-6 for 48 h, then IL-23 vs PBS in fresh media
Source text: FIG. 45A-45H show Single-cell RNA-seq identifies Cd5l as a novel regulator associated with Th17 cell pathogenicity and expressed only by non-pathogenic Th17 cells. Single-cells were sorted from in-vitro Th17 cells differentiated with TGFβ1+IL-6 (A,B), IL-1β+IL-6+IL-23 (C), TGFβ3+IL-6 (D) and in-vivo Th17 cells from CNS of mice at the peak of EAE (score=3) (D). IL-17A.GFP^+ CD4^+ T cells were sorted in all panels in D. (A) Correlation of CD5L expression in non-pathogenic Th17 cells with the pathogenic signature (Lee, Awasthi et al.). (B) Principal Component Analysis of CD5L expression where the direction of PC1 correlates with pathogenicity. (C, D) Histogram of CD5L expression in single-cell from conditions as indicated. CD5L expression in vitro is validated by qPCR (E, F) and flow cytometry (G). […] CD5L expression was measured by qPCR at 48 h (E) and 72 h (F) and intracellularly by flow cytometry at 48 h (G); (F) At 48 h, cells were lifted from plate, washed and replated in fresh media with IL-23 or PBS and cultured for additional 24 h. […] Cd5l and Il17a expression are measured by qPCR. […] I. IL-17^+ (GFP^+) and IL-17^− (GFP^−) CD4^+ cells were sorted from the gut of naïve mice and the number of RNA transcripts measured by nanostring and normalized based on four house-keeping genes. […]

## CCCCC/C=C\C/C=C\C/C=C\C/C=C\CCCC(=O)O [PUFA, arachidonic acid]
Rorγt [1]
  Rorγt binding to the Il10 CNS-9 region: significantly increased; also recorded: enhanced
Th17 cells [2]; CD5L−/− Th17 cells (TGFβ1+IL-6), 5 uM arachidonic acid, Nanostring nCounter
  316 gene signature of Th17 cell differentiation and function: resemble WT non-pathogenic Th17 cells
Th17 cells [2]; qPCR
  Il22 expression: increased
  expression of key pathogenicity signature genes Il10, Il23r, Ccl5, Csf2 and Lag3: reciprocally regulated
Th17 cells [2]; qPCR, Rorγt−/− cells
  effect on Il17 and Il23r expression in Rorγt−/− Th17 cells: abolished
Rorγt [3]; added to the agonist ligand
  Il10 transactivation: enhanced
  Rorγt-mediated Il23r transactivation: almost completely inhibited
Rorγt [3]; cells expressing CD5L
  Rorγt driven Il17a transcription: but not in those expressing CD5L
Rorγt [3]; control cells
  Rorγt driven Il17a transcription: decreased
Th17 cells [4]; CD5L−/− Th17 cells, non-pathogenic condition, 5 uM arachidonic acid
  percentage of IL-17+ CD4+ T cells: reduced percentage
Th17 cells [4]; IL-23RGFP reporter Th17 (TGFβ1+IL-6) expanded with IL-23, 10 uM arachidonic acid or 20 uM palmitic acid, 48 h, FACS
  percentage of IL-23R.GFP+ CD4 T cells: suppressed
Th17 cells [4]; WT Th17 (TGFβ1+IL-6) expanded with IL-23, 10 uM arachidonic acid or 20 uM palmitic acid, 48 h, FACS
  percentage of IL-17+ CD4 T cells: suppressed

B1: IL-23: proinflammatory cytokine; recombinant mouse IL-23 (protein, UniProt Q9EQ14 22-196; P43432 23-335, looked up)
Interleukin-23 subunit alpha: VPRSSSPDWAQCQQLSRNLCMLAWNAHAPAGHMNLLREEEDEETKNNVPRIQCEDGCDPQGLKDNSQFCLQRIRQGLAFYKHLLDSDIFKGEPALLPDSPMEQLHTSLLGLSQLLQPEDHPRETQQMPSLSSSQQWQRPLLRSKILRSLQAFLAIAARVFAHGAATLTEPLVPTA
Interleukin-12 subunit beta: MWELEKDVYVVEVDWTPDAPGETVNLTCDTPEEDDITWTSDQRHGVIGSGKTLTITVKEFLDAGQYTCHKGGETLSHSHLLLHKKENGIWSTEILKNFKNKTFLKCEAPNYSGRFTCSWLVQRNMDLKFNIKSSSSSPDSRAVTCGMASLSAEKVTLDQRDYEKYSVSCQEDVTCPTAEETLPIELALEARQQNKYENYSTSFFIRDIIKPDPPKNLQMKPLKNSQVEVSWEYPDSWSTPHSYFSLKFFVRIQRKKEKMKETEEGCNQKGAFLVEKTSTEVQCKGGNVCVQAQDRYYNSSCSKWACVPCRVRS
Cd5l expression
  Cd5l expression: significantly suppressed
